Data taken from ChEMBL document CHEMBL1201862, “PubChem BioAssay data set” (2004).
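All cell lines were grown in 96-well plates and treated with compound for 48 hours. The concentration for 50% growth inhibition is given as GI50.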 Active and inactive are the calls of the source. No stated cut-off is given here; in the data, active = GI50 up to about 1.1 µM and inactive = higher.

Key:
Experiment in all cases: NCI tumour cell line growth inhibition, 48 h
[1] = system: CCRF-CEM
[2] = system: DU-145
[3] = system: RXF 393
[4] = system: OVCAR-4
[5] = system: CAKI-1
[6] = system: SK-MEL-28
[7] = system: U-251
[8] = system: SK-MEL-2
[9] = system: TK-10
[10] = system: SNB-19
[11] = system: OVCAR-8
[12] = system: RPMI-8226
[13] = system: OVCAR-5
[14] = system: HCT-116
[15] = system: HCT-15
[16] = system: SK-MEL-5
[17] = system: SK-OV-3
[18] = system: Hs-578T
[19] = system: UACC-257
[20] = system: NCI/ADR-RES

| Structure (SMILES) | GI50 [1] | GI50 [2] | GI50 [3] | GI50 [4] | GI50 [5] | GI50 [6] | GI50 [7] | GI50 [8] | GI50 [9] | GI50 [10] | GI50 [11] | GI50 [12] | GI50 [13] | GI50 [14] | GI50 [15] [µM] | GI50 [16] | GI50 [17] | GI50 [18] | GI50 [19] | GI50 [20] |
| --- | --- | --- | --- | --- | --- | --- | --- | --- | --- | --- | --- | --- | --- | --- | --- | --- | --- | --- | --- | --- |
| CC(C)(C)OC(=O)N(CCCCN(CCCNC(=O)C(F)(F)F)C(=O)OC(C)(C)C)CCCNC(=O)C(F)(F)F | > 100 µM (inactive) | > 100 µM (inactive) | > 100 µM (inactive) | > 100 µM (inactive) | 47.1 µM (inactive) | > 100 µM (inactive) | > 100 µM (inactive) | > 100 µM (inactive) | > 100 µM (inactive) | > 100 µM (inactive) | > 100 µM (inactive) | 37.7 µM (inactive) | > 100 µM (inactive) | > 100 µM (inactive) | > 100 | 79.3 µM (inactive) | > 100 µM (inactive) | > 100 µM (inactive) | > 100 µM (inactive) | 91.2 µM (inactive) |
| CC(C)N1CC2CN(Cc3ccccc3)CC(C1)C2=O | 89.1 µM (inactive) | > 100 µM (inactive) | > 100 µM (inactive) | > 100 µM (inactive) | > 100 µM (inactive) | > 100 µM (inactive) | > 100 µM (inactive) | > 100 µM (inactive) | > 100 µM (inactive) | > 100 µM (inactive) | > 100 µM (inactive) | > 100 µM (inactive) | > 100 µM (inactive) | > 100 µM (inactive) | > 100 | – | > 100 µM (inactive) | > 100 µM (inactive) | > 100 µM (inactive) | > 100 µM (inactive) |
| CCCCCC(C/C=N/N(C)C)C(O)(C(F)(F)F)C(F)(F)F (stereo not given) | 17.1 µM (inactive) | 33.3 µM (inactive) | 32 µM (inactive) | 53.2 µM (inactive) | 43.6 µM (inactive) | 45.8 µM (inactive) | 25.4 µM (inactive) | 25.9 µM (inactive) | 54.2 µM (inactive) | 37 µM (inactive) | 41.5 µM (inactive) | 11.3 µM (inactive) | 65.6 µM (inactive) | 32 µM (inactive) | 49.8 | 16.6 µM (inactive) | 33.9 µM (inactive) | 35.6 µM (inactive) | – | > 100 µM (inactive) |
| CC(=O)OCC1OC(Nn2c(=O)[nH]c3ccccc3c2=O)C(OC(C)=O)C(OC(C)=O)C1OC(C)=O (stereo not given) | 40.2 µM (inactive) | > 100 µM (inactive) | > 100 µM (inactive) | – | > 100 µM (inactive) | > 100 µM (inactive) | > 100 µM (inactive) | > 100 µM (inactive) | – | > 100 µM (inactive) | > 100 µM (inactive) | > 100 µM (inactive) | > 100 µM (inactive) | > 100 µM (inactive) | > 100 | > 100 µM (inactive) | > 100 µM (inactive) | > 100 µM (inactive) | 35.3 µM (inactive) | > 100 µM (inactive) |
| CCN(CC)CCN(/C(=N/c1ccccc1)N1CCOCC1)c1ccccc1 | > 100 µM (inactive) | > 100 µM (inactive) | > 100 µM (inactive) | 95.7 µM (inactive) | > 100 µM (inactive) | > 100 µM (inactive) | > 100 µM (inactive) | > 100 µM (inactive) | > 100 µM (inactive) | > 100 µM (inactive) | > 100 µM (inactive) | > 100 µM (inactive) | – | 9.89 µM (inactive) | > 100 | > 100 µM (inactive) | > 100 µM (inactive) | > 100 µM (inactive) | > 100 µM (inactive) | > 100 µM (inactive) |
| Cc1ccc(/N=N/NCCCCN)cc1 | 9.64 µM (inactive) | > 100 µM (inactive) | > 100 µM (inactive) | > 100 µM (inactive) | > 100 µM (inactive) | – | – | > 100 µM (inactive) | > 100 µM (inactive) | 49.2 µM (inactive) | > 100 µM (inactive) | 5.86 µM (inactive) | > 100 µM (inactive) | > 100 µM (inactive) | > 100 | 23.8 µM (inactive) | > 100 µM (inactive) | > 100 µM (inactive) | > 100 µM (inactive) | > 100 µM (inactive) |
| Cc1cc2c(cc1-c1cc3c(cc1C)C(C(C)C)=C(O)C(=O)/C3=C\Nc1c(C)n(C)n(-c3ccccc3)c1=O)/C(=C/Nc1c(C)n(C)n(-c3ccccc3)c1=O)C(=O)C(O)=C2C(C)C | 33 µM (inactive) | > 100 µM (inactive) | 26.1 µM (inactive) | > 100 µM (inactive) | > 100 µM (inactive) | > 100 µM (inactive) | 28.2 µM (inactive) | > 100 µM (inactive) | – | > 100 µM (inactive) | 82 µM (inactive) | 71.9 µM (inactive) | > 100 µM (inactive) | > 100 µM (inactive) | > 100 | 49.9 µM (inactive) | > 100 µM (inactive) | > 100 µM (inactive) | > 100 µM (inactive) | > 100 µM (inactive) |
| OC(c1ccccc1)(c1cccnc1)C(O)(c1ccccc1)c1cccnc1 (stereo not given) | > 100 µM (inactive) | > 100 µM (inactive) | > 100 µM (inactive) | – | > 100 µM (inactive) | – | > 100 µM (inactive) | > 100 µM (inactive) | > 100 µM (inactive) | > 100 µM (inactive) | > 100 µM (inactive) | > 100 µM (inactive) | > 100 µM (inactive) | > 100 µM (inactive) | > 100 | > 100 µM (inactive) | > 100 µM (inactive) | > 100 µM (inactive) | > 100 µM (inactive) | > 100 µM (inactive) |
| CC(C)(CN1CCCCC1)C(=O)CC(SCCS(=O)(=O)O)c1ccccc1 (stereo not given) | 5.16 µM (inactive) | 11.2 µM (inactive) | 10.8 µM (inactive) | 17.6 µM (inactive) | 15.5 µM (inactive) | – | 21.6 µM (inactive) | 37.9 µM (inactive) | 16.9 µM (inactive) | 17.5 µM (inactive) | 18.8 µM (inactive) | 23.2 µM (inactive) | 11.6 µM (inactive) | 5.9 µM (inactive) | 8.57 | 16.3 µM (inactive) | 55 µM (inactive) | 36.1 µM (inactive) | – | 13.4 µM (inactive) |
| CCc1cccc(C(C)(C)C)c1NC(=S)N/C=C(/C#N)C(N)=O | > 100 µM (inactive) | > 100 µM (inactive) | > 100 µM (inactive) | > 100 µM (inactive) | > 100 µM (inactive) | > 100 µM (inactive) | > 100 µM (inactive) | > 100 µM (inactive) | – | > 100 µM (inactive) | > 100 µM (inactive) | > 100 µM (inactive) | > 100 µM (inactive) | > 100 µM (inactive) | 62.4 | > 100 µM (inactive) | > 100 µM (inactive) | 83 µM (inactive) | > 100 µM (inactive) | > 100 µM (inactive) |
| CN(C)/C=N\c1nncc2[nH]nnc12 | 26.7 µM (inactive) | > 100 µM (inactive) | > 100 µM (inactive) | – | > 100 µM (inactive) | > 100 µM (inactive) | > 100 µM (inactive) | > 100 µM (inactive) | > 100 µM (inactive) | > 100 µM (inactive) | > 100 µM (inactive) | > 100 µM (inactive) | > 100 µM (inactive) | > 100 µM (inactive) | > 100 | > 100 µM (inactive) | – | > 100 µM (inactive) | > 100 µM (inactive) | > 100 µM (inactive) |
| CC(=O)OCCc1cc2ccccc2oc1=O | > 100 µM (inactive) | > 100 µM (inactive) | > 100 µM (inactive) | > 100 µM (inactive) | > 100 µM (inactive) | > 100 µM (inactive) | > 100 µM (inactive) | > 100 µM (inactive) | – | > 100 µM (inactive) | > 100 µM (inactive) | > 100 µM (inactive) | > 100 µM (inactive) | > 100 µM (inactive) | > 100 | > 100 µM (inactive) | – | > 100 µM (inactive) | > 100 µM (inactive) | > 100 µM (inactive) |
| CCCCc1ccc(Nc2nc(Cl)c3c(ncn3C3CC(Oc4ccc(C)cc4)C(COc4ccc(C)cc4)O3)n2)cc1 (stereo not given) | > 100 µM (inactive) | > 100 µM (inactive) | > 100 µM (inactive) | > 100 µM (inactive) | > 100 µM (inactive) | – | > 100 µM (inactive) | > 100 µM (inactive) | > 100 µM (inactive) | > 100 µM (inactive) | > 100 µM (inactive) | > 100 µM (inactive) | > 100 µM (inactive) | > 100 µM (inactive) | > 100 | > 100 µM (inactive) | > 100 µM (inactive) | 42.5 µM (inactive) | > 100 µM (inactive) | > 100 µM (inactive) |
| O=C1CC(c2cccc(Cl)c2)n2cccc21 (stereo not given) | > 100 µM (inactive) | > 100 µM (inactive) | > 100 µM (inactive) | > 100 µM (inactive) | 54.6 µM (inactive) | > 100 µM (inactive) | > 100 µM (inactive) | 37.8 µM (inactive) | > 100 µM (inactive) | > 100 µM (inactive) | > 100 µM (inactive) | > 100 µM (inactive) | > 100 µM (inactive) | > 100 µM (inactive) | > 100 | – | > 100 µM (inactive) | 31.8 µM (inactive) | > 100 µM (inactive) | > 100 µM (inactive) |
| CC[N+](C)(CC)Cc1ccccc1[N+](=O)[O-] | > 100 µM (inactive) | > 100 µM (inactive) | > 100 µM (inactive) | > 100 µM (inactive) | > 100 µM (inactive) | > 100 µM (inactive) | 53.7 µM (inactive) | > 100 µM (inactive) | > 100 µM (inactive) | – | 39.8 µM (inactive) | > 100 µM (inactive) | > 100 µM (inactive) | > 100 µM (inactive) | > 100 | > 100 µM (inactive) | > 100 µM (inactive) | > 100 µM (inactive) | > 100 µM (inactive) | > 100 µM (inactive) |
